How the values were obtained:
TAOK2 [1] = biological target: T1, TAOK2 (Rattus norvegicus, UniProt Q9JLS3); assay: Radiometric kinase assay; assay type: biochemical; conditions: determined radiometrically; MBP, γ-labeled ATP
T1 construct: made in house
T1 sequence (Q9JLS3 1-320 limits assumed): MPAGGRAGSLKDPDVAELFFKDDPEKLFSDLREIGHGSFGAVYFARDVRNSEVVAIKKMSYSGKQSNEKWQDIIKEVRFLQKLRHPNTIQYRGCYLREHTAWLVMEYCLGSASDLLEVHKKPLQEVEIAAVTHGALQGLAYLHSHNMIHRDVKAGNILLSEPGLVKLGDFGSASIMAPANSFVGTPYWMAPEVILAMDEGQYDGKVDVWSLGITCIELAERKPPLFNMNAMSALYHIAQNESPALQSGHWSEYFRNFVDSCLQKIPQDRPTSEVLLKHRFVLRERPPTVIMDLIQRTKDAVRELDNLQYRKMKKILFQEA
Method: Radiometric activity assays of selected compounds against TAOK2 were conducted. A reaction solution of 0.02 mg/ml TAOK2, 50 mM MgCl2, 50 mM HEPES pH 7.5, 1 mg/ml MBP, and increasing compound concentration was made. The compound/DMSO solution was 5% by volume in the final reaction mixture. An ATP solution of 1:20 0.1 μCi/ml 32P -labeled ATP:1 mg/ml ATP was made. 10 μl of ATP solution was added to 50 μl of reaction solution, and allowed to react for 30 minutes. Reactions were stopped by blotting onto filter paper, then submerging in10% trifluoroacetic acid (TFA). Samples were washed 4 times in TFA, then put into scintillation vials. 5 ml Complete Counting Cocktail 3a70B (Research Products International Corp.) was added, and the vials were counted on a Beckman scintillation counter for 10 minutes.
Compounds SW034538 and SW083688 were both selective in the DSF measurements and effective in the GFP-LC3 degradation assays. These compounds were then chosen for radiometric analysis to determine their IC50 values (Table 1). TAOK2 was incubated with inhibitor, MBP, and γ-labeled ATP and allowed to react for 10 minutes. The concentrations of MBP and ATP were chosen such that the reaction was kept in the linear range for the duration of the experiment. […] IC50 value estimates were calculated from the results of the 200 k rescreen described above. […]

TAOK2 [2] = biological target: T1, TAOK2; assay: Kinase-Glo high-throughput screen / re-screen of TAOK2 activity (MBP substrate); assay type: biochemical; conditions: estimate from HTS re-screen at 1, 3.3 and 10 μM
Method: TAOK2 activity was screened in a high-throughput fashion using Kinase-Glo (Promega). A 20 μL, solution of 50 mM HEPES pH 7.4, 50 mM MgCl2, 1.27 mg/ml MBP and 0.005 mg/ml TAOK2 was added to each well of a 384 well Corning plate using a Biotek MultiFlo dispenser. 0.2 μl of compound (columns 3 to 22, 50 μM), DMSO negative control (columns 2, 23, and 24), or staurosporine positive control (column 1, 43.4 μM) were then added to each well with a Biomek Liquid handler. 10 μl of 50 μg/ml ATP solution was added to each well with a Labsystems Multidrop384. The plates were incubated at RT for 100 minutes. 20 μl Kinase Glo (Promega) was added to each well, and allowed to incubate for 10minutes under agitation. Luminescence was read on an Envision Multilabel plate reader.
After cherry picking primary hits, the selected compounds were assayed in a limited dose-response format (10, 3.3, and 1 μM) in triplicate using the primary enzymatic assay for TAOK2. The data for each assay well was normalized to the neutral controls. The normalized activity values (replicates) for each compound in each assay were then condensed to a single value (condensed activity) using the “Robust Condensing” method in Genedata Screener®. The condensed activity is the most representative single value of the triplicates. In general, the triplicates were pre-condensed into a pair of values as follows:
In order to study the relationship between TAOK2 and both cancer and autophagy, a high-throughput screen was performed using a 200,000 compound library to discover novel small-molecule kinase inhibitors (FIG. 1A-D). Phosphorylation reactions were performed in a 384 well format against the generic kinase substrate Myelin Basic Protein (MBP) with the addition of compound. Kinase-Glo (Promega) was then added to each well to detect remaining ATP concentration. Thus, inhibitory compounds would decrease TAOK2 activity, which would increase both remaining ATP concentration and luminescence in those wells.
After the initial screen, 1645 compounds were identified with inhibition greater than three σ above the mean DMSO control (FIG. 1A). The Z′ factor of the initial screen across all plates was 0.77, indicating high significance (FIG. 1B). These compounds were then re-screened in triplicate under the same conditions, with the compounds being assayed at three concentrations (1 μM, 3.3 μM, and 10 μM, FIG. 1C, D). 432 compounds were identified after the re-screen with average inhibitions greater than 10 sigma at the 10 μM concentration. The Z′ factor of the confirmation screen was 0.52, again indicating high significance.

| IC50 (TAOK2 [1]) | IC50 (TAOK2 [2]) | SMILES |
| --- | --- | --- |
| 300 nM | – | CCC(=O)Nc1nc(C)c(-c2csc(Nc3cc(OC)ccc3OC)n2)s1 [SW034538] |
| 1300 nM | – | CCOCCCn1c(=S)[nH]c2cc(C(=O)NCC3COc4ccccc4O3)ccc2c1=O (stereo not drawn) [SW083688] |
| – | 5 µM | CS(=O)(=O)c1ccc2nc(NC(=O)CCCOc3ccc(Cl)cc3)sc2c1 [SW172006] |
